Key:
Type in all cases: in vivo
[1] = system: thrombin-induced retinal vascular hyperpermeability; experiment: Rat model of thrombin-induced retinal vascular hyperpermeability (vitreous protein concentration)
[2] = system: TNFα-induced retinal vascular hyperpermeability; experiment: Rat model of TNFα-induced retinal vascular hyperpermeability, oral administration
From the text: TNFα is a cytokine which has been reported to increase its expression in proliferative diabetic retinopathy or at the vitreous body of retinal vein occlusion (Eye 2006; 20: 1366-1369, Jpn. J. Ophthalmol. 2011; 55: 256-63), and in a streptozocin-induced diabetes model, it has been reported that it participates in onset and progress of diabetic retinopathy through permeability enhancement or histopathological alteration of retinal vessel (Mol. Vis. 2009; 15: 1418-1428). Thus, by using a rat model of TNFα-induced retinal vascular hyperpermeability, usefulness of Compound A, the diastereomer I of Compound A and the diastereomer II of Compound A were evaluated.
A rat was intramuscularly administered 1 ml/kg of a mixed solution (7:1) comprising a 5% (W/V) ketamine hydrochloride injection solution and a 2% xylazine hydrochloride injection solution to perform general anesthesia, and a 0.5% (W/V) tropicamide-0.5% phenylephrine hydrochloride eye drop was dropped into eyes to perform mydriasis. Thereafter, 5 μL of TNFα (10 μg/ml) was injected into the vitreous body by using a 32G needle so as not to damage the crystalline lens and the retina. A rat of normal group was administered PBS (phosphate buffer) in place of the TNFα.
Compound A was dissolved in a 1% (W/V) methyl cellulose solution (prepared by dissolving methyl cellulose in purified water) so that it became 2 and 20 mg/ml to prepare a Compound A solution. The Compound A solution was orally administered with a dose of 10 and 100 mg/kg at 30 minutes before, 6 and 20 hours after administration of TNFα in the vitreous body. The diastereomer I of Compound A and the diastereomer II of Compound A were also similarly prepared and administered. Incidentally, the base administered group was similarly administered a 1% (W/V) methyl cellulose solution.
In addition, RS-504393 which is a CCR2 receptor antagonist was used those purchased from Tocris Bioscience Inc., and orally administered in the same manner with a dose of 3 and 30 mg/kg.
After 24 hours from administration of TNFα in the vitreous body, the rat was euthanized by exsanguination, and then, the eyeballs of the rat were excised so as not to mix with a blood. After extraction of the eyeballs, the vitreous body was rapidly collected by making a tiny cut at around the optic papilla using a surgical scalpel. The collected vitreous body was optionally diluted by purified water, and the protein concentration was measured by the Bradford method. The protein concentration of the vitreous body thus measured was used as an index of the retinal vascular permeability. Thereafter, according to Numerical formula 4, a suppressing rate (%) of the evaluated drug against the retinal vascular hyperpermeability caused by TNFα was calculated. […]

[3] = system: choroidal neovascularization; experiment: Krypton laser-induced rat choroidal neovascularization model (fluorescein fundus angiography); conditions: evaluated 7th day after photocoagulation
Experimental: By using a laser-induced rat choroidal neovascularization model (Invest. Ophthalmol. Vis. Sci., 40(2), 459-466 (1999)), usefulness of the compounds of the present invention was evaluated.
A rat was intramuscularly administered 1 ml/kg of a mixed solution (7:1) comprising a 5% (W/V) ketamine hydrochloride injection solution and a 2% xylazine hydrochloride injection solution to perform general anesthesia, and after a 0.5% (W/V) tropicamide-0.5% phenylephrine hydrochloride eye drop was dropped into eyes to perform mydriasis, photocoagulation was carried out by a krypton laser photocoagulation apparatus. The photocoagulation was carried out at the posterior part of eye ground, while avoiding thick retinal blood vessels, by focusing on the deep retina with eight spots per an eye in a scattered state (coagulation conditions: spot size 100 μm, output 100 mW, coagulation time 0.1 second). After the photocoagulation, the ocular fundus was photographed to confirm laser irradiated sites.
Compound A was mixed with a 1% (W/V) methyl cellulose solution (prepared by dissolving methyl cellulose in purified water) so that it became 0.4, 1.2, 4 and 12 mg/ml, and an administration solution containing Compound A was orally administered twice a day for 7 days from the surgery day including the surgery day of the photocoagulation with a dose of 2, 6, 20 and 60 mg/kg. Incidentally, to the base administered group was similarly administered a 1% (W/V) methyl cellulose solution.
At the 7th day after the photocoagulation, a rat was intramuscularly administered 1 ml/kg of a mixed solution (7:1) comprising a 5% (W/V) ketamine hydrochloride injection solution and a 2% xylazine hydrochloride injection solution to perform general anesthesia, and a 0.5% (W/V) tropicamide-0.5% phenylephrine hydrochloride eye drop was dropped into eyes to perform mydriasis, 0.1 ml of a 10% fluorescein solution was injected into a vein of penis to carry out fluorescein fundus angiography. A spot from which no leakage of fluorescence was admitted by the fluorescein fundus angiography was judged as negative (no neovascularization), and a spot from which leakage of fluorescence was admitted was judged as positive. In addition, when the photocoagulation portions from which a slight leakage of fluorescence was admitted were present two portions, it was judged as positive (neovascularization exists). Thereafter, according to Numerical formula 1, a rate of incidence of choroidal neovascularization (%) was calculated from a number of positive spot(s) to the eight spots to which the laser was irradiated, and a suppressing rate (%) of the evaluated drug was calculated in accordance with Numerical formula 2. Incidentally, a number of the samples of each administered group is 7 or 8. […]

[4] = system: TNFα-induced retinal vascular hyperpermeability; experiment: Rat model of TNFα-induced retinal vascular hyperpermeability, intravitreal administration; conditions: 100 μg/eye intravitreally immediately after intravitreal TNFα; vitreous protein at 24 h
Experimental: To investigate an effectiveness of Compound A by topical administration, the effect of intravitreal administration of Compound A on a rat model of TNFα-induced retinal vascular hyperpermeability was investigated. A model was prepared in the same manner as in Pharmacological test 3. Compound A was dissolved in a mixed solution of dimethylsulfoxide and PLA0020 with a ratio of 4: 1 so that it became 40 mg/ml to prepare a solution of Compound A. Immediately after intravitreal administration of TNFα, the solution of Compound A was intravitreally administered with a dose of 100 μg/eyes. Incidentally, to the base administered group, a mixed solution of dimethylsulfoxide and PLA0020 with a ratio of 4:1 was similarly administered. After 24 hours from intravitreal administration of TNFα, the rat was euthanized by exsanguination, and then, the eyeballs of the rat were excised so as not to mix with a blood. […] The collected vitreous body was optionally diluted by purified water, and the protein concentration was measured by the Bradford method. The protein concentration of the vitreous body thus measured was used as an index of the retinal vascular permeability. Thereafter, according to Numerical formula 4, a suppressing rate (%) of the evaluated drug against the retinal vascular hyperpermeability caused by TNFα was calculated. […]

[5] = 10 mg/kg intraperitoneally, vitreous protein 24 h after intravitreal thrombin

COC1COCCC1N[C@@H]1CC[C@@](C(=O)N2CCc3ncc(C(F)(F)F)cc3C2)(C(C)C)C1.O=C(O)CCC(=O)O (stereo partly drawn) [Compound A]
Retinal vascular permeability suppressing rate (%) ([1]; 6 mg/kg orally at 30 min before, 6 and 20 h after intravitreal thrombin, vitreous protein at 24 h): 15% | Retinal vascular permeability suppressing rate (%) ([2]; 10 mg/kg orally at 30 min before, 6 and 20 h after intravitreal TNFα, vitreous protein at 24 h): 63% | Retinal vascular permeability suppressing rate (%) ([2]; 100 mg/kg orally at 30 min before, 6 and 20 h after intravitreal TNFα, vitreous protein at 24 h): 88% | Suppressing rate (%) of incidence of choroidal neovascularization ([3]; 2 mg/kg orally twice a day for 7 days): 32.8% | Suppressing rate (%) of incidence of choroidal neovascularization ([3]; 6 mg/kg orally twice a day for 7 days): 39.5% | Suppressing rate (%) of incidence of choroidal neovascularization ([3]; 20 mg/kg orally twice a day for 7 days): 52.9% | Suppressing rate (%) of incidence of choroidal neovascularization ([3]; 60 mg/kg orally twice a day for 7 days): 62.7% | Retinal vascular permeability suppressing rate (%) [4]: 61%

C[N+](C)(Cc1ccc(NC(=O)c2ccc(Cl)c(Cl)c2)cc1)C1CCOCC1.[Cl-] [Compound B, N-[4-(3,4-dichlorobenzamido)benzyl]-N,N-dimethyl-N-(tetrahydropyran-4-yl)ammonium chloride]
Retinal vascular permeability suppressing rate (%) [1, 5]: −13%

O=C(/C=C/c1cc(F)cc(F)c1)N1CCC([C@@H](CO)N2CCC(c3c[nH]c4ncccc34)CC2)CC1 [Compound C, 2(S)-[1-[3-(3,5-difluorophenyl)-2(E)-propenoyl]piperidin-4-yl]-2-[4-(1H-pyrrolo[2,3-b]pyridin-3-yl)piperidin-1-yl]ethanol]
Retinal vascular permeability suppressing rate (%) [1, 5]: −1%

Cc1ccc2c(c1)C1(CCN(CCc3nc(-c4ccccc4)oc3C)CC1)OC(=O)N2 [RS-504393, reference compound]
Retinal vascular permeability suppressing rate (%) ([2]; 3 mg/kg orally, vitreous protein 24 h after intravitreal TNFα): 18% | Retinal vascular permeability suppressing rate (%) ([2]; 30 mg/kg orally, vitreous protein 24 h after intravitreal TNFα): −13%
